Reference: US20170138946A1, “BIOMARKERS FOR RESPONSE TO EZH2 INHIBITORS” (Memorial Sloan-Kettering Cancer Center, priority 2014, published 2017)

Experiments:
BAP1-mutant cells = experiment: Matrigel invasion assay with GSK126; format: cell-based, human; conditions: GSK126 0-2 μM for 7 days
Procedure: Mesothelioma cells (MSTO-211H, H2373, H226 and H2452) were seeded in T75 flasks (100,000 cells). 12 hours later the plated cells were treated with GSK126 (0-2 μM) (Chemitek) and then left to proliferate for 7 days. 250,000 treated cells were then placed on the top of a Matrigel invasion chamber (BD Biosciences, cat no. 354480) in serum free media while the lower chamber contained media with serum. 22 hours later the cells on the bottom of the membrane were stained with crystal violet and quantitated with ImageJ.

[1] = tested on: E-Cadherin expression in H226; experiment: E-Cadherin expression after GSK126 treatment; format: cell-based, human; conditions: cell line H226
Description: (§1) FIG. 20A-D. BAP1 mutant cell lines are most sensitive to EZH2 inhibition. (a) Meso10 cell line overexpressing EZH2 increasingly proliferated after injection into the flank of NOD-SCID mice. (b) EZH2 was overexpressed in MSTO-211H and Meso10 cell lines. […] (c) BAP1-mutant cells became less invasive when treated with the EZH2 inhibitor GSK126. (d) E-Cadherin expression increased in the cell line H226 following treatment with GSK126.

[2] = tested on: BAP1-mutant mesothelioma cells (H2452 xenografts); experiment: H2452 xenografts in NOD-SCID mice treated with GSK126; format: in vivo
Procedure: FIG. 21A-C. BAP1-mutant mesothelioma cell lines and xenograft models are sensitive to EZH2 inhibition. (a) Tumor volume of H2452 xenografts treated daily with GSK126 at 150 mg/kg or vehicle (n=10 mice per group). 5 mice from each group were euthanized following 16 days of treatment to assess H3K27me3 depletion. The remaining mice were treated for the remainder of the trial. (b) Histone ELISA and Western blot analysis of H3K27me3 levels in tumors from in vivo treated mice after 16 days treatment. (c) H&E staining, Ki67 staining and TUNEL staining of tumors extracted from vehicle treated and GSK126 treated mice, 10× magnification.
Next, whether EZH2 inhibition might inhibit the survival of BAP1-mutant mesothelioma cell lines was assessed. EZH2 silencing induced apoptosis in BAP1-mutant cell lines, whereas wild-type cell lines continued to proliferate (FIGS. 16B,C). EZH2 silencing abrogated in vivo tumor formation of BAP1-mutant but not wild-type cell lines (FIG. 16D). Overexpression of EZH2 in BAP1 wild-type cell lines increased proliferation (FIG. 20A) and sensitivity to EZH2 inhibition (FIG. 20B). […] Next, the impact of EZH2 inhibition in vivo was assessed. […] EZH2 inhibition abrogated pulmonary metastasis in a BAP1-mutant mesothelioma cell line with metastatic potential (FIG. 16G) consistent with a role for BAP1/EZH2 in metastasis (Harbour et al., 2010). EZH2 inhibition reduced invasion and increased E-Cadherin expression in vitro (FIGS. 20C-D). Next, the impact of EZH2 inhibition using the […] GSK126 was assessed. BAP1-mutant mesothelioma cells were injected into the flank of NOD-SCID mice, and then initiated treatment with either vehicle or 150 mg/kg GSK126 after tumor formation.

Bap1 KO mice = Bap1 KO mice treated with EPZ011989 (genetic Bap1 KO trial); format: in vivo; conditions: 500 mg/kg BID orally for 16 days
Description: FIG. 11A-K. Proliferation induced by Bap1 deletion is rescued by loss of Ezh2. (a) Western blot of H3K27me3 levels in histones purified from bone marrow of Bap1 KO, Ezh2 KO, Bap1/Ezh2 KO and control mice. (b) Representative images of spleens and (c) enumeration of spleen weight from the indicated genotypes of mice, 3 weeks post pIpC. (d) Peripheral white blood cell counts and (e) hematocrit percentages as quantified by a Hemavet. (f) Flow cytometric enumeration of myeloid progenitors (Lin^− c-Kit^+Sca1^−) and (g) Mature myeloid cells (Mac1^+Gr1^+) (h) Cell cycle analyses in myeloid progenitors using Ki67 and DAPI stain (n=3/group) (i) Western blot for H3K27me3 levels in mice (n=5/group) treated with EPZ011989 twice a day at 500 mg/kg for 16 days. (j) Spleen weights and (k) white blood cell counts after treatment. Unless otherwise indicated, […], n=5/Ezh2 KO, n=8/Bap1 KO, and n=11/Bap1/Ezh2 KO, Statistics were calculated with Student t-test; *p<0.05, **p<0.005; ±SEM values reported. Groups of 10 week old NOD-SCID mice were injected subcutaneously in the flank with 6-10×10^6 mesothelioma cell lines (MSTO-211H, Meso10, H226 and H2452) in a 1:1 mixture of matrigel and media. When tumors reached a size of approximately 60-80 mm^3, treatment with either vehicle (0.5% NaCMC+0.1% Tween-80 in water) or EPZ011989 was initiated. Either EPZ011989 or vehicle were given orally BID at a concentration of 500 mg/kg for the duration of the experiment. Tumor volumes were assessed in three dimensions using a caliper. Tumors or lung tissue were extracted following treatment and utilized for Western blotting to assess target inhibition. […] Researchers were not blinded in these experiments.

BAP1-mutant cell lines [3] = experiment: 2D Cell Titer Glo viability assay with EPZ011989; format: cell-based, human; conditions: 2 week treatment at 1.25 μM, compared with wild-type cell lines
Description: (§2) FIG. 16A-H. BAP1-mutant mesothelioma cell lines and xenograft models are sensitive to EZH2 inhibition. (a) Expression of EZH2 transcripts in TCGA mesothelioma patients compared to matched normals. (b) Annexin V assays in BAP1 wild-type and mutant cell lines expressing either empty vector or hairpins targeting EZH2. (c) Quantitation of Annexin V experiments in mesothelioma cell lines (d) Tumor size of Meso10 and H226 cell lines expressing EZH2 hairpins implanted into NOD-SCID mice, n=6/group. (e) 2D Cell Titer Glo viability assays after 2 week treatment with EPZ011989 at 1.25 μM. (f) 3D Cell Titer Glo viability assays after 3 weeks EPZ011989 treatment at 1.25 μM. (g) Tumor size formation from BAP1 mutant (MSTO and Meso10) or (h) wild-type cells (H226 and H2452) implanted into NOD-SCID mice and treated with either vehicle or 500 mg/kg BID EPZ011989. Tumors were measured 3× weekly, n=6/group. Target inhibition was assessed by histone western blots in extracted tumors (shown in respective figures). Lung pathology of H2452 cells with vehicle and EPZ1011989 treatment. Arrow indicates bulk metastasized tumor. Statistics were calculated with Student t-test; *p<0.05, **p<0.005; ±SEM values reported.

BAP1-mutant cell lines [4] = experiment: 3D Cell Titer Glo viability assay with EPZ011989; format: cell-based, human; conditions: 3 weeks treatment at 1.25 μM, compared with wild-type cell lines
Description: as §2

BAP1-mutant tumor = experiment: Mesothelioma xenografts in NOD-SCID mice treated with EPZ011989, BAP1-mutant tumors; format: in vivo; conditions: 500 mg/kg BID
Description: as §2, with “(g) Tumor size formation from BAP1 mutant (MSTO and Meso10) or (h) wild-type cells (H226 and H2452) implanted into NOD-SCID mice and treated with either vehicle or 500 mg/kg BID EPZ011989.” left out
(§3) Groups of 10 week old NOD-SCID mice were injected subcutaneously in the flank with 6-10×10^6 mesothelioma cell lines (MSTO-211H, Meso10, H226 and H2452) in a 1:1 mixture of matrigel and media. […] Tumor volumes were assessed in three dimensions using a caliper. […]

wild-type tumors = experiment: Mesothelioma xenografts in NOD-SCID mice treated with EPZ011989, BAP1 wild-type tumors; format: in vivo; conditions: 500 mg/kg BID
Description: as §2, with “Lung pathology of H2452 cells with vehicle and EPZ1011989 treatment. Arrow indicates bulk metastasized tumor.” left out
as §3

[5] = tested on: MSTO-211H and Meso10 cell lines overexpressing EZH2; experiment: Sensitivity to EPZ011989 of cell lines overexpressing EZH2; format: cell-based, human; conditions: MSTO-211H and Meso10 overexpressing EZH2
Description: as §1

[6] = tumors extracted from treated mice, 150 mg/kg

CC[C@H](C)n1cc(C)c2c(C(=O)NCc3c(C)cc(C)[nH]c3=O)cc(-c3ccc(N4CCNCC4)nc3)cc21 [GSK126]
invasion (BAP1-mutant cells): less invasive | E-Cadherin expression [1]: increased | tumor size ([2]; 150 mg/kg daily, compared to vehicle treated mice): significantly reduced | H3K27me3 in tumors in vivo ([2]; 150 mg/kg, after 16 days treatment, histone ELISA and Western blot): significantly attenuated | Ki67 staining [2, 6]: reduced | TUNEL staining [2, 6]: increased

CCN(c1cc(C#CCN2CCOCC2)cc(C(=O)NCc2c(C)cc(C)[nH]c2=O)c1C)[C@H]1CC[C@H](N(C)CCOC)CC1 [EPZ011989]
splenomegaly (spleen weights) (Bap1 KO mice): decreased | white blood cell counts (Bap1 KO mice): decreased | H3K27me3 (Bap1 KO mice; Western blot): decreased | sensitivity of BAP1-mutant cell lines in 2D culture (BAP1-mutant cell lines [3]): more sensitive | sensitivity of BAP1-mutant cell lines in 3D culture (BAP1-mutant cell lines [4]): more sensitive | BAP1-mutant tumor size (BAP1-mutant tumor; compared to vehicle treated mice): significantly reduced | pulmonary metastasis (BAP1-mutant tumor; BAP1-mutant mesothelioma cell line with metastatic potential (H2452)): abrogated | response of wild-type tumors (tumor size) (wild-type tumors): less/not responsive | sensitivity with EZH2 overexpression [5]: increasingly sensitive
